Structures are written as SMILES. Entries after “also recorded” stand apart in the source; their conditions may differ. Read-outs that look alike come from different tables or passages of the source. Where only a bound is given, the exact number is not on record here.

By IC50 is commonly meant the concentration that inhibits the measured activity by half. The low end stands for greater potency in that assay, the high end for weaker potency in that assay.

Data set [1] concerns prostate cancer cells (PC3) and breast cancer MDA-MB-231 cells. In words: Tumor cell growth with kinase inhibitors, with or without TNFα (FIG. 2). The conditions noted are these: 48 hrs; for tumor cell growth: 5 μM U0126, 10 μM 1478, 5 μM 5Z-7-oxozeanol, 5 μM HDAB001, 5 μM SB431542; for repression of tumor cell growth together with TNFα: TNFα (10 ng/ml). It counts as cell-based. From the text:
The response of prostate cancer cells (PC3, FIG. 2) and breast cancer MDA-MB-231 cells to HDAB001 was compared with responses to known kinase inhibitors, including 5Z-7-oxozeanol, a selective inhibitor of TAK1; U0126, a selective MEK inhibitor; AG1478, a selective EGFR inhibitor; SB431542, TGFBR1 inhibitor.

The test system of another data set is phosphorylation of ERK. In words: Phosphorylation of ERK in non-tumor MCF10A cells with EGF-mediated signaling. It counts as cell-based, human. The conditions noted are these: 10 μM HDAB001, 10 μM AG1478. As to the method:
(§1) MEK inhibitor U0126 inhibits phosphorylation of ERK and EGFR inhibitor blocks EGFR-mediated phospho-ERK in MCF10A.
(§2) The selectivity of the HDAB001 and HDAB006 compounds was tested in several cell-based assays examining the kinase activity of RAF, MEK, EGFR and TGFBR1. Several known inhibitors of the above kinases were used for control. Two luciferase reporters NF-KB-Luc and SBE-Luc were transfected in MDA-MB-231 cells to assess the effect of compounds on NF-KB and TGF-beta receptor-Smad signaling events. […] See Safina et al., TAK1 is required for TGF-[beta]1-mediated regulation of matrix metalloproteinase-9 and metastasis. Oncogene, 2008, 27, 1198-1207. […] The kinase activities of TGF-beta receptors type I and type II are required for phosphorylation of Smad2.

A short description of data set [2]: Stability of the isolated product at room temperature. It counts as physicochemical.
For data set [3], the system named is breast carcinoma MDA-MB-231 cells. In words: Cytotoxicity assay (methylene blue staining), MDA-MB-231 cells. Type of data set: cell-based. As to the method:
(§3) The assay consists of treatment of cells with the synthetic compounds (a range of concentrations) and subsequent quantification of the cells by staining with methylene blue and measuring optical density of the resulting colored solution. The measured optical densities are normalized to a vehicle-control and the normalized values are used to determine IC50 values for a given compound using SigmaPlot software, Systat Software, Inc., San Jose, Calif. Cells were seeded in 96-well plate at 2-5,000 cells/well in 100 μl. Next day cells were treated with HDAB compounds. Stocks of compounds (10 mM) were prepared by dissolving in DMSO. Consecutive dilutions ranging 10 nM-100 μM concentrations were prepared as 2× solutions in media, and 100 μl solutions were added to cells for treatment. DMSO was used as a vehicle control. Cells were incubated with compounds for 48 hours at 37° C. in a CO2-incubator. For cell staining, media was removed and cells were fixed and stained with 0.5% Methylene blue in water/methanol (50:50) solution for 1 hour at room temperature (RT). After extensive rinsing in ddH2O the plates were dried over-night. Cells were solubilized in 100 μl/well of 1% SDS in PBS for 10 minutes at RT, the absorbance at 650 nm (methylene-blue absorbance) and 540 nm (background) was read with a SpectraMax fluorimeter and the difference Abs650-Abs540 was calculated.

Data set [4] deals with Non-tumor MCF10A (ER-, PR-) cells. In words: Cytotoxicity in non-tumor MCF10A cells. Type of data set: cell-based, human. As to the method: as §3, with “calculated. […]” for “calculated.”
Data set [5] has as its system breast, prostate and lung carcinoma and non-tumor cell lines. Type of data set: cell-based. As to the method: as §3
Assays were carried out with a panel of breast, prostate and lung carcinoma and non-tumor cell lines with HDAB-001. […] The selectivity trend for HDAB001 was further validated in a set of prostate carcinoma and non-tumor epithelial cell lines.

Data set [6] concerns phosphorylation of ERK1/2. In words: Phosphorylation of ERK1/2 in MDA-MB-231 cells. Type of data set: cell-based. The conditions noted are these: 2 ng/ml TGFβ1 for 2 hours, 10 μM HDAB001, 5 μM U0126. As to the method:
as §1, §2

The subject of a further data set is PC3. In words: Cytotoxicity of HDAB001 in prostate carcinoma cell lines, PC3. Type of data set: cell-based. The conditions noted are these: PC3, AR neg, metastatic. As to the method: as §3, with “calculated. […]” for “calculated.”
The subject of a further data set is LNCaP. In words: Cytotoxicity of HDAB001 in prostate carcinoma cell lines, LNCaP. It counts as cell-based. The conditions noted are these: AR pos, tumor. As to the method: as §3, with “calculated. […]” for “calculated.”
The next data set concerns LNCaP-C4-2. In words: Cytotoxicity of HDAB001 in prostate carcinoma cell lines, LNCaP-C4-2. The conditions noted are these: LNCaP-C4-2, AR pos, ind, metastatic. It counts as cell-based. As to the method:
as §3, with “calculated. […]” for “calculated.”

For the next data set, the system named is RWPE-1. As to the kind of experiment: Cytotoxicity of HDAB001 in prostate cell lines, RWPE-1 (non-tumor). It counts as cell-based. The conditions noted are these: RWPE-1, AR pos. As to the method:
as §3, with “calculated. […]” for “calculated.”

The test system of a further data set is RWPE-2. In words: Cytotoxicity of HDAB001 in prostate carcinoma cell lines, RWPE-2. The conditions noted are these: RWPE-2, AR pos, tumor, metastatic. It counts as cell-based. As to the method: as §3, with “calculated. […]” for “calculated.”
The test system of a further data set is ER-positive cell lines. As to the kind of experiment: Cytotoxicity in ER-positive breast carcinoma cell lines. Type of data set: cell-based. The conditions noted are these: three ER-positive cell lines. As to the method:
as §3, with “calculated. […]” for “calculated.”

The next data set deals with ER/HER2-positive lines. In words: Cytotoxicity in ER/HER2-positive breast carcinoma lines. Type of data set: cell-based. The conditions noted are these: two ER/HER2-positive lines. As to the method:
as §3, with “calculated. […]” for “calculated.”

In data set [7] the test system is mouse carcinoma cell line 4T1. As to the kind of experiment: Cytotoxicity in mouse carcinoma cell line 4T1. Type of data set: cell-based. The conditions noted are these: 4T1 (from BALB/c mice). As to the method: as §3, with “calculated. […]” for “calculated.”
In data set [8] the test system is Non-tumor MCF12A (ER+) cells. As to the kind of experiment: Cytotoxicity in non-tumor MCF12A cells. It counts as cell-based, human. As to the method:
as §3, with “calculated. […]” for “calculated.”

The next data set relates to SBE-Luc. In words: SBE-Luc luciferase reporter (TGF-beta receptor-Smad signaling) in MDA-MB-231 cells. Type of data set: cell-based. As to the method: FIG. 3A-B show data on the luciferase activity of NFkB-Luc and SBE-Luc reporters in MDA-MB-231 control, dnTAK1 or cells treated with HDAB001 and HDAB006, P-values by the ANOVA test.
as §2

In the next data set the test system is phosphorylation of Smad2. In words: Phosphorylation of Smad2 in TGFβ1-treated cells. It counts as cell-based. The conditions noted are these: 2 ng/ml TGFβ1 for 2 hours; HDAB001 10 μM. As to the method: as §1, §2
The mark [9] stands for this setting: triple-negative MDA-MB-231 cells.

Turning to `COc1cc(O)c2c(c1)/C=C/C[C@H](O)[C@H](O)C(=O)/C=C\C[C@H](C)OC2=O` [5Z-7-oxozeanol], in data set [1], the tumor cell growth result was “markedly inhibited” and the “repression of tumor cell growth together with TNFα” value is “cooperated with TNFα”.
As to `COc1cc2ncnc(Nc3cccc(Cl)c3)c2cc1OC` [AG1478], the tumor cell growth result in data set [1] was “resistant”. In the data set on phosphorylation of ERK, the “phosphorylation of ERK in the presence of EGF-mediated signaling” value is on record as “blocked”.
`COC(=O)/C=C\C=C(\C(=O)N(C)OC)c1ccc(Cl)c(Cl)c1` [Compound 1-63h, (2Z,4E)-methyl 5-(3,4-dichlorophenyl)-6-(methoxy(methyl)amino)-6-oxohexa-2,4-dienoate]: the stability after isolation result in data set [2] is “decomposed at room temperature”.
For `O=c1[nH]cc(F)c(=O)[nH]1` [Compound 5FU, 5-FluororoUricil, reference compound], the IC50 in data set [3] (setting [9]) amounted to 5.7 µM; in data set [4], 1.8 µM. Further, the “more toxic to non-tumor MCF10A than to breast cancer MDA-MB-231 cells” value in data set [5] is given as 3-10 fold.
With `N#CC(=C(/N)Sc1ccccc1N)/C(C#N)=C(\N)Sc1ccccc1N` [Compound U0126], in data set [1], the tumor cell growth entry is reported as “less sensitive”. The “phosphorylation of ERK1/2” value in data set [6] is listed as “inhibits; also recorded: effectively blocked”.
For the compound `COc1cccc2c1C(=O)c1c(O)c3c(c(O)c1C2=O)C[C@@](O)(C(=O)CO)C[C@@H]3O[C@H]1C[C@H](N)[C@H](O)[C@H](C)O1` [Doxorubicin, reference compound], the “more toxic to non-tumor MCF10A than to breast cancer MDA-MB-231 cells” value in data set [5] (human, 48 h) is listed as 3-10 fold.
With `COC(=O)/C=C\C=C(\C(=O)OC)c1ccc(Cl)c(Cl)c1` [HDAB001], the 50% inhibitory concentration (IC50) turned out to be 4.62 µM in data set [3] (MDA-MB-231 cells, 48 hours incubation, methylene blue staining); 3.7 µM in data set [3] (setting [9]); 2.3 µM in the data set with PC3; 2.1 µM in the data set on LNCaP; 0.5 µM in the data set on LNCaP-C4-2; 40.1 µM in the data set on RWPE-1. The concentration for half-maximal inhibition (IC50) with RWPE-2 is 2.4 µM; in the data set with ER-positive cell lines, 0.3 to 0.75 µM; in the data set with ER/HER2-positive lines, 1 to 1.5 µM; in data set [7] it was 0.53 µM; in data set [4], 48 µM; in data set [8] it was above 100 µM. In data set [5] (non-tumor vs tumor cells), the “IC50 in non-tumor MCF10A and MCF12A cells relative to tumor cells” value was around 20 fold. In addition, in [5] (tumor vs non-tumor cells), the “selectivity for tumor cells compared to non-tumor cells” value is on record as “at least twenty-fold”. In data set [1], the tumor cell growth result is reported as “markedly inhibited”. Also, the “repression of tumor cell growth together with TNFα” value in data set [1] is on record as “cooperated with TNFα”. In the data set with SBE-Luc, the TGF-beta reporter activity entry was “did not affect”. In the data set on phosphorylation of Smad2, the “phosphorylation of Smad2” value is recorded as “did not affect”. Also, the “phosphorylation of ERK1/2” value in data set [6] is “did not affect”. Besides, in the data set with phosphorylation of ERK, the “phosphorylation of ERK in the presence of EGF-mediated signaling” value is recorded as “did not affect”.
In turn, `COC(=O)/C=C\C=C(\C(=O)OC)c1ccc(Br)c(Br)c1` [HDAB022, (2E,4Z)-dimethyl 2-(3,4-dibromophenyl)hexa-2,4-dienedioate] gave an IC50 in data set [3] (Homo sapiens, MDA-MB-231 cells, 48 hours incubation, methylene blue staining) of 2.16 µM.
With `NC(=O)c1ccc(-c2nc(-c3ccc4c(c3)OCO4)c(-c3ccccn3)[nH]2)cc1` [SB431542, reference compound], the tumor cell growth result in data set [1] is on record as “resistant”. Moreover, the “phosphorylation of Smad2” value in the data set with phosphorylation of Smad2 is on record as “blocked”.

Source of the values: patent US9751825B2, “TAK1 kinase inhibitors, compositions, and used related thereto” (Emory University, priority 2011, dated 2017).
